In ChEMBL document CHEMBL1124870, “2-(4-Amino-4-carboxybutyl)aziridine-2-carboxylic acid. A potent irreversible inhibitor of diaminopimelic acid epimerase. Spontaneous formation from alpha-(halomethyl)diaminopimelic acids” (J Med Chem, 1990):

What was measured:
[1] = Rate of formation of aziridine under physiological conditions; type: ADME
[2] = Dissociation constant value of the compound; type: physicochemical; settings: read-out: Ki/ki
[3] = tested on: Escherichia coli; assay: Concentration at which first-order inactivation was observed by the inhibition of Diaminopimelate epimerase

| Structure (SMILES) | k0 [1] [min⁻¹] | kik0/Ki [1] | Kd [2] [µM] | Concentration [3] [µM] |
| --- | --- | --- | --- | --- |
| NC(CCCC(N)(CCl)C(=O)O)C(=O)O (stereo unspecified) | 0.011 | 0.002 µM-1 min··-2 |  |  |
| NC(CCCC(N)(CF)C(=O)O)C(=O)O (stereo unspecified) | 0.000079 | 0.0000145 uM-1 min**-2 |  |  |
| NC(CCCC1(C(=O)O)CN1)C(=O)O (stereo unspecified) |  |  | 5.5 | 2 |
